The subject of data set [1] is EAMG rats. As to the kind of experiment: Force and EMG in sedated EAMG animals (triceps surae, sciatic nerve stimulation). The format is in vivo, rat.
Data set [2] relates to EAMG rats. The data set can be described thus: 14-day dosing in EAMG animals: bodyweight and study completion. In kind it is in vivo, rat. Here is the method:
(§1) To induce EAMG, 250 μL of emulsion of Complete Freund's Adjuvant, consisting of heat-inactivated Mycobacterium tuberculosis H37Ra in non-metabolizable oils, together with Phosphate-Buffered Saline (PBS) and 80 μg of the extracellular α-domain peptide fragment of the human nicotinic acetylcholine receptor (antigen) was injected subcutaneously in seven-week-old, anaesthetized Lewis rats. The disease-inducing antigen was supplied by the Hellenic Pasteur institute3. The emulsion was deposited at the tail base, left hindleg, and right foreleg. After injection, animals were allowed to recover and returned to their home cage maintained in ventilated racks under controlled temperature (20 to 22° C.) and humidity (˜55%) control, under a 12-h light/12-h dark cycle with food and water provided ad libitum. The animals had pathogen free status and the housing and changing system was designed to assure that the pathogen free status was preserved during the study. The EAMG rats were observed, weighed, and scored for MG symptoms weekly until symptoms of MG developed, whereafter animals were observed daily.
Sixteen (16) rats with an EAMG clinical score of 2 were allocated to the study and stratified to one of the two treatment groups (vehicle vs NMD670, 8 rats per group). […] Grip strength and Rotarod performance were measured prior to treatment (day 0) and on days 1, 4, 7, 9, 11 and 14 during treatment. […]

The subject of data set [3] is soleus, EDL and diaphragm muscles from EAMG rats. The data set can be described thus: Force measurement in isolated intact nerve-muscle preparations. Also on record: species or system rat. To be noted: for Relative force area after addition of NMD670 (Initial area = 100): NMD670 between 20 and 40 μM. The source says: To allow for measurements of electrophysiological properties at the cellular level and for measurements of force, it was necessary to isolate nerve-muscle preparations from the rats. To this end, animals were sacrificed, and muscles were dissected out with 1 to 3 cm of intact nerve. The nerve-muscle preparations were then transferred to the organ baths used for the particular experiments (see below) and perfused with Normal Krebs-Ringer (NKR) solution, consisting of (in mM); 122 NaCl, 25 NaHCO3, 2.8 KCl, 1.2 KH2PO4, 1.2 MgSO4 1.27 CaCl2 and 5 D-glucose. This NKR solution was continuously gassed with a mixture of 95% oxygen and 5% CO2, to maintain a pH of approx. 7.4. In some experiments methyl-sulphate was used to replace Cl^− in the solution. All chemicals used were of analytical grade.
To determine whether enhanced neuromuscular transmission with CIC-1 inhibition could restore force in whole muscles from EAMG animals, experiments were conducted with soleus, extensor digitorum longus, and diaphragm muscles from EAMG rats. All muscles were mounted on force transducers (FORT 250, WPI instruments DE) in pre-warmed chambers (30° C.) containing 20 mL NKR each. The acquisition program Signal (version 6.4, Cambridge Electronics Design Ltd, Cambridge, UK) was used to control stimulation, delivered by an isolated stimulator (isostim 01D NPI electronics, DE) and for recording data via an analogue-digital converter (Micro 1401 Cambridge Electronics Design Ltd, Cambridge, UK). After equilibration in chambers, muscles were stretched to their optimal length and stimulated at a range of frequencies. For the duration of the experiment muscles were stimulated both directly and via the nerve at 12 V. This was accomplished by changing the stimulation pulse duration between 0.02 ms for nerve stimulation and 0.2 ms for direct stimulation of the muscle fibres. Muscles were stimulated every 10 min at 60 Hz for 1 second, either directly or via the nerve. To test for effect of NMD670 on force generation, different concentrations of NMD670 were added directly to the experimental chamber of the individual muscles.

The next data set is described as follows: Tablet dissolution. Conditions: after a maximum of 60 minutes; USP2 paddles 75 RPM, 900 ml dissolution media pH 6.8, 37° C. The format is physicochemical.
Data set [4] has as its system EAMG rats. The data set can be described thus: 14-day dosing in EAMG animals: rotarod test. The format is in vivo, rat. Here is the method: as §1
Sixteen (16) rats with an EAMG clinical score of 2 were allocated to the study and stratified to one of the two treatment groups (vehicle vs NMD670, 8 rats per group). Stratification was based on rotarod endurance and grip strength performance with the aim to obtain similar average starting points for the two groups. Grip strength and Rotarod performance were measured prior to treatment (day 0) and on days 1, 4, 7, 9, 11 and 14 during treatment. The treatment was administered by per oral gavage. Dosing was twice daily with 20 mg/kg NMD670 or vehicle (sterile water) for 14 days unless the rat was subjected to premature termination due to reaching humane endpoints. The dose solutions for the treatment groups were blinded. Thus, experimenters and subsequent analysis were blinded as to which group received CIC-1 inhibitor and which group received vehicle. Full analysis of data and statistics were concluded before unblinding the data. Plasma samples were obtained on days 0, 1 and 14, with muscle samples obtained on day 14 at termination.
Rotarod test was conducted on a Touchscreen Rotarod from Panlab (Model LE8305, Harward Apparatus). For testing the running performance, the rat was placed in one of 4 running lanes on the rotating rod that rats were challenged to run on. Prior to the first test on the rotarod on Day 0, the rat was allowed a 1-minute run at 4 rotations per minute (RPM), to familiarize with the apparatus. The rat was then allowed at least 5 minutes of rest before the test was conducted. To test the running performance, the rat was challenged with a protocol consisting of constantly accelerating speed from 4 to 40 RPM over 420 seconds. Test occasions consisted of 3 runs with at least 5 and no more than 15 minutes of rest between each run. Performance was quantified by the duration that the rat was able to remain on the rotating rod. Average values of the 3 runs per test occasion were used for further data processing.

1 molecule from patent US20260102377A1, “COMPOSITIONS AND METHODS FOR TREATING MYASTHENIA GRAVIS” (priority 2022, published 2026) can be followed below.

“Also recorded” adds a separate entry of the source.

Experimental for Tablet dissolution: Tablet dissolution was determined as follows.
Dissolution Media pH 6.8 was prepared by dissolving 27.3 g Na2HPO4·2H2O and 4.9 g Citric Acid in 1 L Milli-Q water. The pH was measured and adjusted if necessary to pH 6.8.
900 mL of dissolution media pH 6.8 was accurately transferred into each dissolution vessel. The apparatus was assembled, and the dissolution media was heated to 37° C.±0.5° C. The T=0 point was extracted from each vessel prior to dropping the tablets into the dissolution vessels. One tablet was gently dropped into each dissolution vessel, and rotation of the paddle was immediately started. Samples were taken that the sample extraction timepoints and analysed using the HPLC method.

Turning to `C[C@H](Oc1ccc(Br)cc1-c1ccon1)C(=O)O` [NMD670, (2S)-2-[4-bromo-2-(1,2-oxazol-3-yl)phenoxy]propanoic acid], the “Nerve-stimulated force and EMG amplitude in triceps surae” value in the data set on EAMG rats [1] (EAMG rat score 2, 40 mg per kg, 20 minutes after administration, 80 Hz for 1 second) was “rapid restoration of force and EMG amplitude”. In addition, in the data set on EAMG rats [1] (EAMG rats, single per oral doses from 2 to 120 mg/kg), the “Restoration of muscle force / EMG” value was “rapid and dose-dependent restoration of muscle force; also recorded: rapid and dose-dependent restoration of both EMG and force”. Besides, the “Loss of body weight versus vehicle” value with EAMG rats [2] (14-day chronic dosing, EAMG animals, 20 mg/kg twice daily (b36 prints 40 mg/kg BID)) was “attenuation in loss of body weight”. Further, the “Treated rats that completed the study” value in the data set with EAMG rats [2] (14-day study, early termination when body weight below 80% of maximum, vehicle 3 out of 8) is recorded as 6 of the 8. The “Force from isolated soleus muscle” value in data set [3] (20 μM NMD670, nerve-stimulated at 60 Hz, EAMG rats) is “could be restored”. For the same molecule, the “Relative force area after addition of NMD670 (Initial area = 100)” value in data set [3] (Diaphragm (12) from EAMG rats) was 120.2 ± 5.04; in data set [3] (EDL (14) from EAMG rats), 235.1 ± 25.0; in data set [3] (Soleus (14) from EAMG rats) it was 199 ± 17.1. Further, the “Force generation in isolated soleus, EDL and diaphragm muscles compared with muscles from healthy animals” value in data set [3] (NMD670 20 μM or between 20 and 40 μM, EAMG animals) is on record as “restored force generation”. In the data set “Tablet dissolution”, the “NMD670 released from the tablets” value is given as “Not less than 80%”. Moreover, the “Endurance on rotarod over vehicle group throughout the period of treatment” value in the data set on EAMG rats [4] (14-day chronic dosing, 20 mg/kg twice daily) is “higher endurance on rotarod”. The “Rotarod performance (latency to fall in seconds)” value with EAMG rats [4] (day 0 (prior to treatment), 20 mg/kg twice daily per oral, P = 0.9478 vs vehicle) is 28.5 ± 7.3 s; in the data set on EAMG rats [4] (day 1, 20 mg/kg twice daily per oral, P > 0.9999 vs vehicle) it was 38.4 ± 8.7 s; with EAMG rats [4] (day 4, 20 mg/kg twice daily per oral, P = 0.4613 vs vehicle) it was 37.8 ± 10.1 s; in the data set with EAMG rats [4] (day 7, 20 mg/kg twice daily per oral, P = 0.7852 vs vehicle), 29.1 ± 8.8 s; in the data set on EAMG rats [4] (day 9, 20 mg/kg twice daily per oral, P = 0.6753 vs vehicle) it was 27.5 ± 9.1 s; in the data set with EAMG rats [4] (day 11, 20 mg/kg twice daily per oral, P = 0.0335 vs vehicle) it was 35.5 ± 12.6 s. In the data set with EAMG rats [4] (day 14, 20 mg/kg twice daily per oral, P = 0.8122 vs vehicle), the “Rotarod performance (latency to fall in seconds)” value came to 19.0 ± 5.7 s.
